This is an account of results in PubChem BioAssay (NCI).

Each structure is given as a SMILES string.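 Cells were grown in 96-well plates and exposed to each compound for 48 hours at five concentrations; endpoints were interpolated linearly between bracketing concentrations, or set to the highest concentration if not reached. TGI denotes the concentration required for complete inhibition of growth.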

Test systems include SNB-19 CNS; DMS 273 small cell lung; NCI-H460 lung; SNB-78 CNS; LOX IMVI melanoma; M19-MEL melanoma; DMS 114 small cell lung.
Common to all, as to assay: DTP human tumour cell line panel, 48 h

One may read the TGI as the concentration at which net growth stops. With `CCC1(C)NN=c2s/c(=C/c3ccc(OC)cc3)c(=O)n2N1` (stereo not given), the TGI in the experiment on SNB-19 CNS, in the experiment with DMS 273 small cell lung, with NCI-H460 lung, in the experiment with SNB-78 CNS and with LOX IMVI melanoma was greater than 100 µM throughout.
On to `CCC(C)CN1C(=O)NC(C)(Cc2ccccc2)C1=O` (stereo not given), for which the TGI in the experiment with M19-MEL melanoma, in the experiment with SNB-19 CNS, in the experiment with DMS 114 small cell lung, in the experiment on DMS 273 small cell lung, in the experiment with NCI-H460 lung and in the experiment with SNB-78 CNS was greater than 100 µM throughout. In the experiment on LOX IMVI melanoma, this molecule displayed a concentration for total growth inhibition (TGI) greater than 100 µM.
As to `O=C(NCCCCCCCCNC(=O)c1cnc2ccccc2n1)c1cnc2ccccc2n1`, the TGI in the experiment on M19-MEL melanoma, in the experiment on SNB-19 CNS, in the experiment on DMS 114 small cell lung, in the experiment on DMS 273 small cell lung, in the experiment on NCI-H460 lung and in the experiment with SNB-78 CNS was greater than 100 µM throughout. Besides, the TGI in the experiment on LOX IMVI melanoma was greater than 100 µM.
Regarding `C=CCC1OC(C)(C)Oc2ccc(OCOCCOC)cc21` (stereo not given), the TGI in the experiment on SNB-19 CNS, with DMS 114 small cell lung, with NCI-H460 lung and in the experiment on LOX IMVI melanoma was greater than 100 µM in each case.
For `N#Cc1cccc(N2C(=O)c3c(c(-c4ccccc4)c(-c4ccc(Sc5ccc(-c6c(-c7ccccc7)c7c(c(-c8ccccc8)c6-c6ccccc6)C(=O)N(c6cccc(C#N)c6)C7=O)cc5)cc4)c(-c4ccccc4)c3-c3ccccc3)C2=O)c1`, the total growth inhibition concentration (TGI) in the experiment with SNB-19 CNS, in the experiment with DMS 114 small cell lung, in the experiment on DMS 273 small cell lung, in the experiment with NCI-H460 lung, with SNB-78 CNS and in the experiment on LOX IMVI melanoma was greater than 100 µM throughout.
As for `N=C(c1ccccc1)N(c1ccccc1)c1ccccc1`, the TGI in the experiment on M19-MEL melanoma, with SNB-19 CNS, in the experiment with DMS 273 small cell lung, in the experiment with NCI-H460 lung, in the experiment on SNB-78 CNS and with LOX IMVI melanoma was greater than 100 µM throughout.
As for `CC1=C(C(=O)NCc2ccccc2)C(c2ccc(C3C(C(=O)NCc4ccccc4)=C(C)NC(C)=C3C(=O)NCc3ccccc3)cc2)C(C(=O)NCc2ccccc2)=C(C)N1`, the TGI in the experiment on M19-MEL melanoma was 21.3 µM; with SNB-19 CNS, 29.2 µM; with DMS 114 small cell lung, 25.9 µM; in the experiment with DMS 273 small cell lung it was 31.7 µM; with NCI-H460 lung, greater than 100 µM; in the experiment on SNB-78 CNS, 27.1 µM.
Turning to `CCOc1ccc(NC(=O)CC2SC(=Nc3ccc(Cl)cc3)NC2=O)cc1` (stereo not given), the TGI with M19-MEL melanoma, in the experiment with SNB-19 CNS, in the experiment with DMS 114 small cell lung, in the experiment on DMS 273 small cell lung, in the experiment on NCI-H460 lung and in the experiment on LOX IMVI melanoma was greater than 100 µM in each case.
In the case of `COc1cc2c(cc1O)C=NCC2`, the TGI in the experiment on M19-MEL melanoma, in the experiment with SNB-19 CNS, in the experiment on DMS 114 small cell lung, in the experiment on DMS 273 small cell lung, in the experiment with NCI-H460 lung and in the experiment on SNB-78 CNS was greater than 100 µM throughout.
For the molecule `C#CCC[C@@H]1O[C@@]1(C)CC/C=C(\C)CC/C=C/C=O`, the total growth inhibition concentration (TGI) in the experiment with M19-MEL melanoma is 48.1 µM; in the experiment on SNB-19 CNS, greater than 100 µM; in the experiment with DMS 114 small cell lung, 35.1 µM; with DMS 273 small cell lung it was 39 µM; in the experiment with NCI-H460 lung it was greater than 100 µM; in the experiment on SNB-78 CNS it was 77.3 µM. In the experiment with LOX IMVI melanoma, the TGI was 35.2 µM.
Take `COc1ccc(/C(=N/NC(N)=O)C2(O)C(=O)Nc3ccc([N+](=O)[O-])cc32)cc1` (stereo not given): the TGI is 45.6 µM in the experiment with M19-MEL melanoma; greater than 10 µM in the experiment with SNB-19 CNS; 47.8 µM in the experiment on DMS 114 small cell lung; 39.3 µM in the experiment on DMS 273 small cell lung; 39.4 µM with NCI-H460 lung; 34.7 µM with SNB-78 CNS.
Take `CC[P+](C)(Cc1ccccc1)c1ccccc1` (stereo not given): the TGI with M19-MEL melanoma, with SNB-19 CNS, in the experiment on DMS 114 small cell lung, in the experiment with DMS 273 small cell lung, with NCI-H460 lung and in the experiment with SNB-78 CNS was greater than 100 µM each time. Moreover, the TGI in the experiment with LOX IMVI melanoma is greater than 100 µM.
As for `O=C(O)c1ccccc1Cc1ccco1`, the TGI in the experiment on SNB-19 CNS, with DMS 114 small cell lung, with DMS 273 small cell lung, in the experiment with NCI-H460 lung and in the experiment on SNB-78 CNS was greater than 100 µM in each case.
Consider `CN(C)c1ccc2c(c1)C(=O)N(OS(=O)(=O)c1ccc([N+](=O)[O-])cc1)C2=O`, for which the TGI in the experiment with M19-MEL melanoma is 52.7 µM; in the experiment on SNB-19 CNS, greater than 100 µM; in the experiment with DMS 114 small cell lung it was greater than 10 µM; with DMS 273 small cell lung it was 43.9 µM; with NCI-H460 lung, greater than 100 µM; in the experiment with SNB-78 CNS it was 73.8 µM.
Consider `CC1CC2C3CC(F)C4=CC(=O)C=CC4(C)C3(F)C(O)CC2(C)C1(O)C(=O)COC(=O)C(C)(C)C` (stereo not given), for which the TGI in the experiment with M19-MEL melanoma, in the experiment on SNB-19 CNS, in the experiment on DMS 114 small cell lung, with DMS 273 small cell lung, in the experiment with NCI-H460 lung and in the experiment with SNB-78 CNS was greater than 100 µM each time. This molecule showed a TGI with LOX IMVI melanoma greater than 100 µM.
As for `Cc1cccc(C(=O)c2cccc3ccccc23)c1C(=O)O`, the TGI with M19-MEL melanoma was greater than 100 µM; with SNB-19 CNS it was greater than 100 µM; in the experiment with DMS 114 small cell lung, 13.8 µM; in the experiment on DMS 273 small cell lung it was greater than 100 µM; in the experiment with NCI-H460 lung, greater than 100 µM; in the experiment with SNB-78 CNS, greater than 100 µM. This molecule also gave a TGI with LOX IMVI melanoma greater than 100 µM.
As for `c1ccc(SC2(Sc3ccccc3)CCCC2)cc1`, the TGI in the experiment with M19-MEL melanoma, in the experiment on SNB-19 CNS, in the experiment on DMS 114 small cell lung, in the experiment with DMS 273 small cell lung, in the experiment on NCI-H460 lung and in the experiment on SNB-78 CNS was greater than 100 µM in each case. The same molecule returned a TGI in the experiment on LOX IMVI melanoma greater than 100 µM.
For the molecule `CCCCCCCCCCCOC(=S)NC(C)C`, the TGI was 58.6 µM with M19-MEL melanoma; greater than 100 µM with SNB-19 CNS; 36.1 µM in the experiment on DMS 114 small cell lung; 34.4 µM with DMS 273 small cell lung; 50.7 µM in the experiment with NCI-H460 lung; 78.5 µM in the experiment with SNB-78 CNS. Moreover, the TGI with LOX IMVI melanoma came to 30.7 µM.
With `Cc1ccc(C(=O)O/N=C2/CCCC/C2=C\c2ccccc2)cc1`, the TGI was greater than 100 µM with M19-MEL melanoma; greater than 100 µM with SNB-19 CNS; 76.9 µM in the experiment on DMS 273 small cell lung; greater than 100 µM in the experiment on NCI-H460 lung; 53.4 µM with SNB-78 CNS; 44.2 µM in the experiment on LOX IMVI melanoma.
Turning to `Nc1nc(CCC(=O)Nc2cccc(C(F)(F)F)c2)cc(-c2cccc3ccccc23)n1`, the TGI in the experiment with M19-MEL melanoma, in the experiment on SNB-19 CNS, in the experiment with DMS 114 small cell lung, with DMS 273 small cell lung, in the experiment with NCI-H460 lung and with SNB-78 CNS was greater than 100 µM throughout. Besides, the TGI in the experiment on LOX IMVI melanoma was greater than 100 µM.
